What was measured:
Plasmodium falciparum [1] = test: Antiplasmodial activity against synchronized ring stage Plasmodium falciparum 3D7 infected in human erythrocytes assessed as reduction in parasite growth incubated for 72 hrs by Giemsa staining based light microscopic method; format: functional, organism-based; conditions: 3D7, Erythrocyte
[2] = Selectivity index, ratio of IC50 for cytotoxicity against human HepG2 cells assessed to IC50 for antiplasmodial activity against synchronized ring stage Plasmodium falciparum 3D7 infected in human erythrocytes; format: toxicity, cell-based; conditions: read-out: Ratio IC50
HEK-293T = test: Cytotoxicity against human HEK293T cells assessed as reduction in cell viability incubated for 72 hrs by cell titer glo assay; format: cell-based
Plasmodium falciparum [3] = test: Antiplasmodial activity against synchronized ring stage Plasmodium falciparum Dd2 infected in human erythrocytes assessed as reduction in parasite growth incubated for 72 hrs by Giemsa staining based light microscopic method; format: functional, organism-based; conditions: Dd2, Erythrocyte
HepG2 = test: Cytotoxicity against human HepG2 cells assessed as reduction in cell viability incubated for 72 hrs by cell titer glo assay; format: cell-based; conditions: HepG2, 72 h
[4] = Selectivity index, ratio of IC50 for cytotoxicity against human HEK293T cells assessed to IC50 for antiplasmodial activity against synchronized ring stage Plasmodium falciparum 3D7 infected in human erythrocytes; format: toxicity, cell-based; conditions: read-out: Ratio IC50
Plasmodium falciparum [5] = test: Antiplasmodial activity against artemisinin-resistant ring stage Plasmodium falciparum 6320 infected in human erythrocytes assessed as reduction in parasite growth incubated for 72 hrs by Giemsa staining based light microscopic method; format: functional, organism-based; conditions: Plasmodium falciparum, 6320, Erythrocyte
Plasmodium falciparum [6] = test: Antiplasmodial activity against Plasmodium falciparum CP286 infected in human erythrocytes assessed as reduction in parasite growth incubated for 72 hrs by Giemsa staining based light microscopic method; format: functional, organism-based; conditions: CP286, Erythrocyte
[7] = Clearance in mouse liver microsomes incubated upto 45 mins in presence of NADPH by LC-MS/MS analysis; format: ADME, Microsome; conditions: read-out: CLH
[8] = Toxicity in Balb/c mouse infected with blood stage Plasmodium yoelii assessed as animal death at 60 mg/kg, ip QD for 5 consecutive days and measured on day 30; format: organism-based; conditions: in vivo, 120 h, time 5 day
Plasmodium falciparum [9] = test: Antiplasmodial activity against Plasmodium falciparum GB4 infected in human erythrocytes assessed as reduction in parasite growth incubated for 72 hrs by Giemsa staining based light microscopic method; format: functional, organism-based; conditions: GB4, Erythrocyte
[10] = Half life in mouse liver microsomes incubated upto 45 mins in presence of NADPH by LC-MS/MS analysis; format: ADME, Microsome
Plasmodium falciparum [11] = test: Antiplasmodial activity against artemisinin-resistant Plasmodium falciparum 6218 infected in human erythrocytes assessed as reduction in parasite growth incubated for 72 hrs by Giemsa staining based light microscopic method; format: functional, organism-based; conditions: Plasmodium falciparum, 6218, Erythrocyte
Plasmodium falciparum [12] = test: Antiplasmodial activity against Plasmodium falciparum C2A infected in human erythrocytes assessed as reduction in parasite growth incubated for 72 hrs by Giemsa staining based light microscopic method; format: functional, organism-based; conditions: Erythrocyte

| SMILES | IC50 (Plasmodium falciparum [1]) | selectivity ratio [2] | IC50 (HEK-293T) | IC50 (Plasmodium falciparum [3]) | IC50 (HepG2) | selectivity ratio [4] | IC50 (Plasmodium falciparum [5]) | IC50 (Plasmodium falciparum [6]) | CLint scaled [7] | Activity [8] | IC50 (Plasmodium falciparum [9]) | half-life [10] | IC50 (Plasmodium falciparum [11]) | IC50 (Plasmodium falciparum [12]) |
| --- | --- | --- | --- | --- | --- | --- | --- | --- | --- | --- | --- | --- | --- | --- |
| O=C(NO)c1cnc(N2CCC3(CCN(Cc4c5ccccc5cc5ccccc45)C3)CC2)nc1 | 22.3 nM | 7 | 390 nM | 16.5 nM | 165 nM | 18 | – | – | – | – | – | – | – | – |
| Cn1nc(CN2CCC3(CCN(c4ncc(C(=O)NO)cn4)CC3)C2)c2ccccc21 | 4.8 nM | 29 | 395 nM | 4.9 nM | 139 nM | 82 | – | – | – | – | – | – | – | – |
| Cl.Cn1cc(CN2CCC3(CCN(c4ncc(C(=O)NO)cn4)CC3)C2)c2ccccc21 | 2.8 nM | 26 | 60 nM | 2.5 nM | 72 nM | 22 | 4.1 nM | 3.9 nM | 424 mL/min/kg | Toxic | 3.7 nM | 12.9 min | 3.5 nM | 4.87 nM |
| O=C(NO)c1cnc(N2CCC3(CCN(Cc4ccnc5ccccc45)C3)CC2)nc1 | 14.6 nM | 33 | 351 nM | 14.7 nM | 482 nM | 24 | – | – | – | – | – | – | – | – |
| O=C(NO)c1cnc(N2CCC3(CCN(Cc4ccc5ccc6cccc7ccc4c5c67)C3)CC2)nc1 | 26.4 nM | 64 | 1970 nM | 19.5 nM | 1680 nM | 74 | – | – | – | – | – | – | – | – |
| O=C(NO)c1cnc(N2CCC3(CCN(Cc4cncc5ccccc45)C3)CC2)nc1 | 11.5 nM | 9 | 423 nM | 7.9 nM | 102 nM | 37 | – | – | – | – | – | – | – | – |
| O=C(NO)c1cnc(N2CCC3(CCN(Cc4ccoc4)C3)CC2)nc1 | 35.3 nM | 30 | 1630 nM | 26.3 nM | 1050 nM | 46 | – | – | – | – | – | – | – | – |
| O=C(NO)c1cnc(N2CCC3(CCN(Cc4ccsc4)C3)CC2)nc1 | 23.1 nM | 46 | 831 nM | 11.8 nM | 1060 nM | 36 | – | – | – | – | – | – | – | – |
| O=C(NO)c1cnc(N2CCC3(CCN(Cc4cccc5ccncc45)C3)CC2)nc1 | 8.1 nM | 51 | 207 nM | 6.9 nM | 415 nM | 26 | – | – | – | – | – | – | – | – |
| O=C(NO)c1cnc(N2CCC3(CCN(Cc4ccc5ccccc5n4)C3)CC2)nc1 | 6.9 nM | 47 | 393 nM | 2.98 nM | 320 nM | 57 | – | – | – | – | – | – | – | – |
| O=C(NO)c1cnc(N2CCC3(CCN(CC4CCCCC4)C3)CC2)nc1 | 10.2 nM | 160 | 1250 nM | 14.7 nM | 1630 nM | 122 | – | – | – | – | – | – | – | – |
| O=C(NO)c1cnc(N2CCC3(CCN(Cc4ccccn4)C3)CC2)nc1 | 16.2 nM | 80 | 1720 nM | 23.3 nM | 1300 nM | 106 | – | – | – | – | – | – | – | – |
| O=C(NO)c1cnc(N2CCC3(CCN(Cc4ccc(-c5ccccc5)cc4)C3)CC2)nc1 | 34.5 nM | 19 | 732 nM | 46.1 nM | 641 nM | 21 | – | – | – | – | – | – | – | – |
| O=C(NO)c1cnc(N2CCC3(CCN(Cc4ccccc4)C3)CC2)nc1 | 6.8 nM | 32 | 375 nM | 7.6 nM | 217 nM | 55 | – | – | – | – | – | – | – | – |
| O=C(NO)c1cnc(N2CCC3(CCN(Cc4cnc5ccccc5c4)C3)CC2)nc1 | 5.54 nM | 102 | 145 nM | 2.7 nM | 564 nM | 26 | – | – | – | – | – | – | – | – |
| O=C(NO)c1cnc(N2CCC3(CCN(Cc4ccncc4)C3)CC2)nc1 | 16.9 nM | 193 | 3470 nM | 22.8 nM | 3250 nM | 206 | – | – | – | – | – | – | – | – |
| O=C(NO)c1cnc(N2CCC3(CCN(Cc4cc5ccccc5c5ccccc45)C3)CC2)nc1 | 10.1 nM | 20 | 482 nM | 8.5 nM | 204 nM | 48 | – | – | – | – | – | – | – | – |
| O=C(NO)c1cnc(N2CCC3(CCN(Cc4cccc5ncccc45)C3)CC2)nc1 | 11.6 nM | 64 | 559 nM | 9.2 nM | 740 nM | 48 | – | – | – | – | – | – | – | – |
| O=C(NO)c1cnc(N2CCC3(CCN(Cc4cccc5ccccc45)C3)CC2)nc1 | 4.4 nM | 21 | 154 nM | 6.7 nM | 91 nM | 35 | – | – | – | – | – | – | – | – |
| O=C(NO)c1cnc(N2CCC3(CCN(Cc4cccnc4)C3)CC2)nc1 | 20.4 nM | 90 | 2130 nM | 17.9 nM | 1830 nM | 104 | – | – | – | – | – | – | – | – |
| O=C(NO)c1cnc(N2CCC3(CCN(Cc4ccc5ccccc5c4)C3)CC2)nc1 | 4.1 nM | 56 | 484 nM | 3.16 nM | 228 nM | 118 | – | – | – | – | – | – | – | – |
| O=C(NO)c1cnc(N2CCC3(CCN(CC4CCCC4)C3)CC2)nc1 | 13.6 nM | 46 | 1220 nM | 12.7 nM | 630 nM | 90 | – | – | – | – | – | – | – | – |
| C[C@H]1[C@@H](O)O[C@@H]2O[C@@]3(C)CC[C@H]4[C@H](C)CC[C@@H]1[C@@]24OO3 [ARTENIMOL] | 2.7 nM | – | – | 2.68 nM | – | – | 5.9 nM | 5.6 nM | – | – | 3.2 nM | – | 5.2 nM | 3.7 nM |
| O=C(NO)c1cnc(N2CCC3(CCN(Cc4cccc5cccnc45)C3)CC2)nc1 | 8 nM | 28 | 351 nM | 3.4 nM | 221 nM | 44 | – | – | – | – | – | – | – | – |
| O=C(NO)c1cnc(N2CCC3(CCN(Cc4cnc5ccccn45)C3)CC2)nc1 | 14.4 nM | 136 | 3530 nM | 18.5 nM | 1960 nM | 245 | – | – | – | – | – | – | – | – |
| O=C(NO)c1cnc(N2CCC3(CCN(Cc4csc5ccccc45)C3)CC2)nc1 | 4.3 nM | 18 | 109 nM | 3.6 nM | 79 nM | 25 | – | – | – | – | – | – | – | – |
| O=C(NO)c1cnc(N2CCC3(CCN(Cc4coc5ccccc45)C3)CC2)nc1 | 13.6 nM | 65 | 576 nM | 10.9 nM | 886 nM | 42 | – | – | – | – | – | – | – | – |
